The values below come from patent publication US20240294550A1, “8-OXA-3-AZABICYCLO[3.2.1]OCTANE COMPOUNDS OR SALT THEREOF, AND PREPARATION METHOD AND USE THEREOF” (LITTDD MEDICINES LTD, priority 2021, published 2024).

Structures are written as SMILES. In brackets after ≈: the same amount, converted by molar mass. Read-outs that look alike come from different tables or passages of the source.

The target of series [1] is ATR (Homo sapiens (Human), UniProt Q13535). As to the kind of experiment: ATR kinase inhibition assay (HTRF). The format is biochemical. The conditions noted are these: p53 substrate, ATP 150 nM. Here is the method: This experiment adopted Homogeneous time-resolved fluorescence technology (HTRF®) of Cisbio Company for assay.
ATR, sequence (Q13535 whole entry): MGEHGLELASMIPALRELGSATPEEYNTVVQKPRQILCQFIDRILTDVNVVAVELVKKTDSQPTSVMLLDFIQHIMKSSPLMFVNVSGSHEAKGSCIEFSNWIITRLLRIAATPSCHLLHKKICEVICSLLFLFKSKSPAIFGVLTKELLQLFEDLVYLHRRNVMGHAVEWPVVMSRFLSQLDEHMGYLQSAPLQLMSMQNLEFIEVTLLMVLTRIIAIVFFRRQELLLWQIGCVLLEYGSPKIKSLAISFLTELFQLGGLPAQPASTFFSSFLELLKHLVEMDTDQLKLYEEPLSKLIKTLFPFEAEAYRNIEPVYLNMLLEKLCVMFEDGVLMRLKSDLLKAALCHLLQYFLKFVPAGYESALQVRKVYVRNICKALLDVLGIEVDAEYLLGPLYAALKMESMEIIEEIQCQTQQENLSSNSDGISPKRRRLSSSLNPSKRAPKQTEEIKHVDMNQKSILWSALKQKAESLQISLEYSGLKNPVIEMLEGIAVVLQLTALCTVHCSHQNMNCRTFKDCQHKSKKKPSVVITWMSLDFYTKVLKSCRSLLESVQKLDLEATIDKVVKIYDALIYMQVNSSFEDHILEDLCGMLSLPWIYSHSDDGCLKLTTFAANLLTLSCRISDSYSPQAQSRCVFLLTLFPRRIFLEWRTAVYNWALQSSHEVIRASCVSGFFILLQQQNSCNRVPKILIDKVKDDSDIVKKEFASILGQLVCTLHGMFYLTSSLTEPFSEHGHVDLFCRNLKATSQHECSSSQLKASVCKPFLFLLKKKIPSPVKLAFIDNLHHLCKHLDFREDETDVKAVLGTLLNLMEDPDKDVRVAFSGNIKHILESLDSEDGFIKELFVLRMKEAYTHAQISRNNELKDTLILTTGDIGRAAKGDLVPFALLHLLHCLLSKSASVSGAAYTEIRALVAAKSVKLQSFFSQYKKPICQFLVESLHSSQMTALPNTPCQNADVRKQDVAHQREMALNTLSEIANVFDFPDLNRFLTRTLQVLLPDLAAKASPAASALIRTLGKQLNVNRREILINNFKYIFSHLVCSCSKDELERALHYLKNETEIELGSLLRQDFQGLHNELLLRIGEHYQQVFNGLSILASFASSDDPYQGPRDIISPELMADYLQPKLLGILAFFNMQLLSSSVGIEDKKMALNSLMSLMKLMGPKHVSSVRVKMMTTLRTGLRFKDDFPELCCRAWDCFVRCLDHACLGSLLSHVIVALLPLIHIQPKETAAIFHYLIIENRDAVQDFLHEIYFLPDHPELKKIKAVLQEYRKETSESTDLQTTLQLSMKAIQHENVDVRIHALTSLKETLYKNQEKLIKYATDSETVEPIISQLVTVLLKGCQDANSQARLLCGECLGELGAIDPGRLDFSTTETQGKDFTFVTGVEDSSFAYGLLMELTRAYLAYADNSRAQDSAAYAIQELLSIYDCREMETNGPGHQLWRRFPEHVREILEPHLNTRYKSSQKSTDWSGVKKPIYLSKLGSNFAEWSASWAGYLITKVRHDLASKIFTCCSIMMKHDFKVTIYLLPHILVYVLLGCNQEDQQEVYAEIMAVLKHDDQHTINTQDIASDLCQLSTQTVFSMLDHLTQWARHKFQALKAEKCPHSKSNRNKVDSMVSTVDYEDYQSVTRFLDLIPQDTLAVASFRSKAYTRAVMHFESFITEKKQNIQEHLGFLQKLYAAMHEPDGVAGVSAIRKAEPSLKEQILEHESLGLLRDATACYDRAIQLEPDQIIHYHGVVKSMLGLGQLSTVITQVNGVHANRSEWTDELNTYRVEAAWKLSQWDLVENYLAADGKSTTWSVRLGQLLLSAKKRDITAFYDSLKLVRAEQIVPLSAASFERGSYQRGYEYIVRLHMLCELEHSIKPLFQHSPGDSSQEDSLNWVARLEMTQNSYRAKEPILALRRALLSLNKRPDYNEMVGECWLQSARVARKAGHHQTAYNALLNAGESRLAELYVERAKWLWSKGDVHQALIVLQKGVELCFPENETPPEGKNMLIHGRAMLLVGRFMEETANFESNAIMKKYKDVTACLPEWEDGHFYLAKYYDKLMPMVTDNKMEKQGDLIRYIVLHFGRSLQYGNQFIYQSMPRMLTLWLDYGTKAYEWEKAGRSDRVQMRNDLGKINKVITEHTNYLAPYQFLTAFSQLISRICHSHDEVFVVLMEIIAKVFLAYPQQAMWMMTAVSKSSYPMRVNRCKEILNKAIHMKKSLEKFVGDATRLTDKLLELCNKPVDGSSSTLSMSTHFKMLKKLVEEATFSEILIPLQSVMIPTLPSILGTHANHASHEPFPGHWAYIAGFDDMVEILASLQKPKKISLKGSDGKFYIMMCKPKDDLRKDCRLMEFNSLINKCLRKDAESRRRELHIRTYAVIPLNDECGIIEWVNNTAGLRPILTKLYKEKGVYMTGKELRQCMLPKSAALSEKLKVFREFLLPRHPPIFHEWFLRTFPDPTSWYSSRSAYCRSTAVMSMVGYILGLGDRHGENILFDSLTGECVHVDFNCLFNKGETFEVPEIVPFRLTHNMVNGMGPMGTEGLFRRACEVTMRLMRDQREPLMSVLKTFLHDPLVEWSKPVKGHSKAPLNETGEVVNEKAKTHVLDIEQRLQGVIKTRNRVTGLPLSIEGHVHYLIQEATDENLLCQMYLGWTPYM
ATR, sequence (Q8WXE1 whole entry partner): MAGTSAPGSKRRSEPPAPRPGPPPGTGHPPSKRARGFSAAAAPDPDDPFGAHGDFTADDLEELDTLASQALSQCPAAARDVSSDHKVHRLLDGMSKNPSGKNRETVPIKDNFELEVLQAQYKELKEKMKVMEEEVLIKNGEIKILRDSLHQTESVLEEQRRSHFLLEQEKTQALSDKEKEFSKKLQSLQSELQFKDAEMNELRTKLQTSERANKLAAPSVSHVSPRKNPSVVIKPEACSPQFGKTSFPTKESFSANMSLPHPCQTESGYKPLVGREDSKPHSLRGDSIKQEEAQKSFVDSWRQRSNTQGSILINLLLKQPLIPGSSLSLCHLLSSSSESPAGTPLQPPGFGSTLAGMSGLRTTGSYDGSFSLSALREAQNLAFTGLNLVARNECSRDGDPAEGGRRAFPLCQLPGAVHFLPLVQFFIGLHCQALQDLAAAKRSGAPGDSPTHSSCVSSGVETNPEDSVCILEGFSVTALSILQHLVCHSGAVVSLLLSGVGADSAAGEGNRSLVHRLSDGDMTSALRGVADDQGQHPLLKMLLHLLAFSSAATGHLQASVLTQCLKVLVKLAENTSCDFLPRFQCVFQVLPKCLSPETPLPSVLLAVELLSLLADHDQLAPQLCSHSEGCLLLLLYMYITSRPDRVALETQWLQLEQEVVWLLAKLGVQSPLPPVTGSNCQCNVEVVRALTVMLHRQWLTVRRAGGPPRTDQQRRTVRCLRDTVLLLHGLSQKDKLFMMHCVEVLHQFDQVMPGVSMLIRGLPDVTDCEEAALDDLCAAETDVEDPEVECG
Experiment method: buffers were prepared as follows:
Preparation of solutions of the test compounds: The example compounds shown in the table below were prepared into solutions using DMSO as solvent, the stock solution typically being 10 mM. The maximum starting concentration in this experiment was 3 μM, DMSO 3-fold serial dilutions for concentrations, the serially diluted solution was added to each well of the corresponding 384-well plate (geriner bio-one, Cat #784075) to give final concentrations of 3000, 1000, 333, 111, 37, 12.3, 4.12, 1.37, 0.457, 0.152 nM, respectively, and the corresponding amount of DMSO was added to the additional wells to be used as negative or positive control wells, respectively.
The enzyme and substrate were separately dissolved and diluted in two tubes with the buffer prepared above at the following concentrations:
5 μL of the ATR protein solution from tube A was added to the compound-containing wells and the negative control wells in the assay plates using an electric multichannel pipettor, and the same volume of the prepared buffer (medium only, no enzyme) was added to the positive control wells. The plates were centrifuged for one minute at 1000 rpm, and then placed in an incubator at 25° C. for 15 minutes. 5 μL of the substrate mix solution from tube B was added to the positive control well, negative control well and the compound-containing well of the assay plates in the same manner, centrifuged and incubated at 25° C. for 90 minutes.
During the reaction, after ATR phosphorylated the substrate p53, two antibodies were added. Among them, anti-phospho-p53-Eu, as an energy donor, can specifically bind to the phosphorylation site of p53, while anti-GST-d2, as an energy receptor, can specifically bind to the GST-tagged p53. Upon excitation by a laser with certain wavelength (the excitation wavelength in this experiment is 340 nm), the energy donor can emit emission light of 615 nm, and when the energy donor and the energy receptor are close enough in space (that is, two antibodies are connected to p53 at the same time), energy transfer can occur between the energy donor and the energy receptor, so that the energy receptor can emit emission light of 665 nm. The two emission lights were detected by a plate reader, and the ratio of the signals at 665 nm and 615 nm was calculated. The IC50 of the samples tested can be obtained by plotting and calculation.
10 μL per well of the detection solution was added to the positive control, negative control and compound wells of the assay plate using an electric multichannel pipette, centrifuged and incubated overnight at 4° C., and read with the plate reader Envision 2104.
Compound inhibition rate was calculated using interpolation. The mean values of the positive and negative controls were calculated respectively, and the following formula was used to calculate the inhibition rates of the compounds:
Inhibition rate Minimum response+(Compound concentration ^Curve slope)*(Maximum response−Minimum response)/(Compound concentration^Curve slope+Half inhibition concentration ^Curve slope)
The IC50 value of each compound to enzyme activity was obtained.

The test system of series [2] is LOVO cells. As to the kind of experiment: Cell proliferation assay (CellTiter-Glo). The format is cell-based. The conditions noted are these: Homo sapiens, 96 hours. As to the method: The cell proliferation inhibition effect of the compound of the invention was tested using CellTiter-Glo™ cell viability assay kit. This kit uses luciferase as the detector. During the luminescence process, the luciferase requires the participation of ATP. CellTiter-Glo™ reagent was added to the cell culture medium, and the luminescence value was measured. The light signal is proportional to the amount of ATP present in the system, and ATP positively correlates with the number of viable cells present, thus the cell proliferation activity is measured.
Cell culture and seeding: LOVO cells in logarithmic growth phase (human colon carcinoma cells) (ATCC CCL-229) were harvested and counted using a platelet counter. Trypan blue exclusion method was used to detect the cell viability to ensure that the cell viability was above 90%. 90 μL of cell suspension (RPMI1640+10% fetal bovine serum) was added to a 96-well transparent flat-bottom black-wall plate (Thermo, 165305) respectively, and the cell concentration was adjusted to 3000/well/90 μl. Cells in the 96-well plate were incubated overnight at 37° C., 5% CO2 with 95% humidity (Thermo, Model 3100 Series).
Firstly, DMSO was used as the solvent to prepare 10 mM mother solution of the test compounds, and then PBS was used to dilute 100 times to prepare a solution of 10 times of final concentration, the highest concentration was 100 μM. 10 μL solution of the test compounds was added to each well of the 96 well plate inoculated with cells, namely the solution was further diluted 10 times to reach the final concentration of 10 μM. Starting from 10 μM, the final concentration of the test compound was 3-fold serially diluted, with 9 concentrations in total with 3 triplicates for each concentration. The 96 well plates with the test compounds and cells were incubated at 37° C., 5% CO2 and 95% humidity for 96 hours, and then CellTiter Glo analysis was performed.
CellTiter-Glo Reagents (CellTiter Glo R Luminescent Cell Viability Assay, Promega, G7572) were melted and the 96-well plates were equilibrated to room temperature for 30 minutes. An equal volume of CellTiter-Glo solution was added to each well, and the cells were lysed by shaking on the fixed orbit shaker for 5 minutes. The assay plates were left at room temperature for 20 minutes to stabilize the luminescence signal, and the luminescence signals were read using the SpectraMax multi-labeled microplate detector (MD, M3).
Data were analyzed using GraphPad Prism 7.0 software, fitted with non-linear S-curve regression to derive the dose-response curves, and IC50 values were calculated therefrom.
Cell survival rate (%)=(LumDrug to be tested−LumCulture medium control)/(LumCell control−LumCulture medium control)×100%

Series [3] is described as follows: Pharmacokinetic (PK) assay in mice. The format is in vivo. The conditions noted are these: CD-1 mice; for AUC(0-t): read-out: AUC0-24 h. Here is the method:
The PK of each compound was determined as follows: 6 CD-1 mice (obtained from Shanghai Lingchang Biotechnology Co., Ltd.) were divided into two groups, 3 mice in each group. […] Blood samples were collected from saphenous vein of lower leg in each group at 0, 0.083, 0.25, 0.5, 1, 2, 4, 6, 8 and 24 h after administration. Approximately 40 μL of the blood samples were collected in anticoagulant tubes containing EDTA-K2. Immediately after collection, the tubes were inverted at least 5 times to ensure adequate mixing, and then placed on ice. The blood samples collected at each time point were centrifuged at 4° C., 8000 rpm for 5 minutes to obtain plasma. Another 1.5 mL centrifuge tube was marked with the compound name, animal number, and time point, and the plasma was transferred to this tube. The plasma was stored at −80° C. until analysis.
Compound concentrations in plasma were determined by UPLC-MS/MS method, and the pharmacokinetic parameters were calculated by Phoenix WinNolin 6.4 pharmacokinetic software on the obtained data.

Series [4] can be described thus: Equilibrium solubility in FaSSIF. In kind it is physicochemical. The conditions noted are these: thermodynamic from solid; FaSSIF pH 6.5, shaken 24 hours. As to the method:
The compound powder was weighed into a volumetric flask, 450 μL of pH 6.5 FaSSIF solution was added to obtain a supersaturated suspension, the samples were vortexed for at least 2 minutes, and the volumetric flasks were shaken on a vibrating screen at 800 rpm for 24 hours, and then centrifuged at 4000 rpm for 20 minutes. The compressed filtrate was added to a HPLC system, and the concentrations were calculated by a standard curve method.

`C[C@@H]1COCCN1c1cc(N2CC3CCC(C2)O3)nn2c(-c3cc[nH]n3)ncc12` [Example 3, 3-(4-((R)-3-methylmorpholino)-7-(1H-pyrazol-3-yl)imidazo[1,5-b]pyridazin-2-yl)-8-oxa-3-azabicyclo[3.2.1]octane]: the 50% inhibitory concentration (IC50) was found to be 0.0059 µM in series [1] and 0.067 µM in series [2]. In series [3] (IV dose 1 mg/kg), the CL_obs stood at 10.0 mL/min/kg. In addition, the half-life in series [3] (mouse, plasma, IV dose 1 mg/kg) was 7.56 h; in series [3] (mouse, plasma, Po dose 5 mg/kg) it was 3.99 h. Besides, the Vd in series [3] (mouse, plasma, IV dose 1 mg/kg, read-out: Vss) is 1.03 L/kg. In series [3] (mouse, plasma, Po dose 5 mg/kg vs IV dose 1 mg/kg), this compound registered a bioavailability of 77.5%. In series [3] (mouse, IV dose 1 mg/kg, plasma), this compound showed a C0 of 2860 ng/mL. For the same compound, the AUC(0-t) in series [3] (mouse, IV dose 1 mg/kg, plasma) came out at 1650 ng·h/mL; in series [3] (mouse, Po dose 5 mg/kg, plasma), 6460 ng·h/mL. Moreover, the Cmax in series [3] (mouse, Po dose 5 mg/kg, plasma) was determined as 3150 ng/mL. In addition, the solubility at 24 h in series [4] is 1140 µg/mL (≈ 2890 µM).
